Laboratory results published in the supplement of paper PMC10883282.

Experiments:
Assay in all cases: relative viability vs DMSO control (72 h) (fraction); higher = more viable cells
HT1080 = system: HT1080
Outline: (§1)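 Relative viability is percent growth read by ATPLite and averaged over up to triplicate wells. Sarcoma cells were seeded in 384-well plates to reach 80–90% confluence and given 2.5 µl of serially diluted compound after 24 h, from source plates of 10 mM to 0.0002 mM. Incubation lasted 72 h at 37 °C, 5% CO2, with 0.1% DMSO vehicle and a 5 µM positive control, and the data were rescaled so 1 equals full and 0 equals none.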

KHOS-NP = system: KHOS-NP
Outline: as §1

SK-ES-1 = system: SK-ES-1
Outline: as §1

RD-ES = system: RD-ES
Outline: as §1

SW982 = system: SW982
Outline: as §1

KHOS-240S = system: KHOS-240S
Outline: as §1

G401 = system: G401
Outline: as §1

A204 = system: A204
Outline: as §1

SW1353 = system: SW1353
Outline: as §1

SW872 = system: SW872
Outline: as §1

SYO-1 = system: SYO-1
Outline: as §1

SW684 = system: SW684
Outline: as §1

Cc1cc(F)c(C(=O)Nc2cccc(-c3nncn3C(C)C)n2)cc1-n1cnc(C2CC2)c1 [Selonsertib]
Settings	relative viability
A204, 0.00017 µM	1.07
A204, 0.00051 µM	1.02
A204, 0.00152 µM	1.03
A204, 0.00457 µM	1.09
A204, 0.01372 µM	1.07
A204, 0.04115 µM	1.08
A204, 0.1235 µM	1.1
A204, 0.3704 µM	1.07
A204, 1.111 µM	1.01
A204, 3.333 µM	0.802
A204, 10 µM	0.389
G401, 0.00017 µM	1.02
G401, 0.00051 µM	0.988
G401, 0.00152 µM	1.01
G401, 0.00457 µM	1.01
G401, 0.01372 µM	0.995
G401, 0.04115 µM	1.04
G401, 0.1235 µM	1.01
G401, 0.3704 µM	0.994
G401, 1.111 µM	0.979
G401, 3.333 µM	0.882
G401, 10 µM	0.684
HT1080, 0.00017 µM	1.01
HT1080, 0.00051 µM	1.04
HT1080, 0.00152 µM	1.04
HT1080, 0.00457 µM	1.04
HT1080, 0.01372 µM	1.05
HT1080, 0.04115 µM	1.04
HT1080, 0.1235 µM	1.04
HT1080, 0.3704 µM	1.03
HT1080, 1.111 µM	1.08
HT1080, 3.333 µM	1.09
HT1080, 10 µM	1.081
KHOS-240S, 0.00017 µM	1.05
KHOS-240S, 0.00051 µM	1.07
KHOS-240S, 0.00152 µM	1.04
KHOS-240S, 0.00457 µM	1.06
KHOS-240S, 0.01372 µM	1.07
KHOS-240S, 0.04115 µM	1.06
KHOS-240S, 0.1235 µM	1.07
KHOS-240S, 0.3704 µM	1.06
KHOS-240S, 1.111 µM	1.03
KHOS-240S, 3.333 µM	0.983
KHOS-240S, 10 µM	0.736
KHOS-NP, 0.00017 µM	1.04
KHOS-NP, 0.00051 µM	1.05
KHOS-NP, 0.00152 µM	1.042
KHOS-NP, 0.00457 µM	1.06
KHOS-NP, 0.01372 µM	1.06
KHOS-NP, 0.04115 µM	1.07
KHOS-NP, 0.1235 µM	1.07
KHOS-NP, 0.3704 µM	0.911
KHOS-NP, 1.111 µM	1.06
KHOS-NP, 3.333 µM	1.02
KHOS-NP, 10 µM	0.707
RD-ES, 0.00017 µM	0.972
RD-ES, 0.00051 µM	0.988
RD-ES, 0.00152 µM	0.955
RD-ES, 0.00457 µM	0.983
RD-ES, 0.01372 µM	0.999
RD-ES, 0.04115 µM	1.02
RD-ES, 0.1235 µM	0.983
RD-ES, 0.3704 µM	1.01
RD-ES, 1.111 µM	0.994
RD-ES, 3.333 µM	0.975
RD-ES, 10 µM	0.537
SK-ES-1, 0.00017 µM	1.01
SK-ES-1, 0.00051 µM	1.05
SK-ES-1, 0.00152 µM	1.03
SK-ES-1, 0.00457 µM	1.09
SK-ES-1, 0.01372 µM	1.08
SK-ES-1, 0.04115 µM	1.03
SK-ES-1, 0.1235 µM	1.03
SK-ES-1, 0.3704 µM	1.01
SK-ES-1, 1.111 µM	0.988
SK-ES-1, 3.333 µM	0.896
SK-ES-1, 10 µM	0.313
SW684, 0.00017 µM	1.15
SW684, 0.00051 µM	1.136
SW684, 0.00152 µM	1.14
SW684, 0.00457 µM	1.15
SW684, 0.01372 µM	1.2
SW684, 0.04115 µM	1.14
SW684, 0.1235 µM	1.11
SW684, 0.3704 µM	1.12
SW684, 1.111 µM	1.1
SW684, 3.333 µM	1.13
SW684, 10 µM	1.012
SW872, 0.00017 µM	0.995
SW872, 0.00051 µM	1
SW872, 0.00152 µM	1.02
SW872, 0.00457 µM	1.03
SW872, 0.01372 µM	1.03
SW872, 0.04115 µM	1.04
SW872, 0.1235 µM	1.06
SW872, 0.3704 µM	1.05
SW872, 1.111 µM	1.08
SW872, 3.333 µM	1.07
SW872, 10 µM	1.05
SW982, 0.00017 µM	1.05
SW982, 0.00051 µM	1.05
SW982, 0.00152 µM	1.07
SW982, 0.00457 µM	1.05
SW982, 0.01372 µM	1.08
SW982, 0.04115 µM	1.09
SW982, 0.1235 µM	1.07
SW982, 0.3704 µM	1.09
SW982, 1.111 µM	1.09
SW982, 3.333 µM	1.1
SW982, 10 µM	1.07
SW1353, 0.00017 µM	0.962
SW1353, 0.00051 µM	0.977
SW1353, 0.00152 µM	0.951
SW1353, 0.00457 µM	0.95
SW1353, 0.01372 µM	0.934
SW1353, 0.04115 µM	0.953
SW1353, 0.1235 µM	0.968
SW1353, 0.3704 µM	0.994
SW1353, 1.111 µM	0.986
SW1353, 3.333 µM	0.977
SW1353, 10 µM	0.964
SYO-1, 0.00017 µM	0.95
SYO-1, 0.00051 µM	0.947
SYO-1, 0.00152 µM	0.949
SYO-1, 0.00457 µM	0.94
SYO-1, 0.01372 µM	0.95
SYO-1, 0.04115 µM	0.965
SYO-1, 0.1235 µM	0.944
SYO-1, 0.3704 µM	0.921
SYO-1, 1.111 µM	0.886
SYO-1, 3.333 µM	0.828
SYO-1, 10 µM	0.5622

COc1cc(Nc2ncc3c(n2)-c2ccc(Cl)cc2C(c2c(F)cccc2OC)=NC3)ccc1C(=O)O [Alisertib]
Settings	relative viability
A204, 0.00017 µM	1.07
A204, 0.00051 µM	1.073
A204, 0.00152 µM	1.07
A204, 0.00457 µM	1.03
A204, 0.01372 µM	1.07
A204, 0.04115 µM	1.06
A204, 0.1235 µM	0.882
A204, 0.3704 µM	0.796
A204, 1.111 µM	0.768
A204, 3.333 µM	0.7276
A204, 10 µM	0.711
G401, 0.00017 µM	1.01
G401, 0.00051 µM	0.979
G401, 0.00152 µM	0.984
G401, 0.00457 µM	0.966
G401, 0.01372 µM	0.892
G401, 0.04115 µM	0.845
G401, 0.1235 µM	0.756
G401, 0.3704 µM	0.706
G401, 1.111 µM	0.705
G401, 3.333 µM	0.637
G401, 10 µM	0.563
HT1080, 0.00017 µM	1.11
HT1080, 0.00051 µM	1.07
HT1080, 0.00152 µM	1.08
HT1080, 0.00457 µM	1.06
HT1080, 0.01372 µM	1.07
HT1080, 0.04115 µM	0.994
HT1080, 0.1235 µM	0.974
HT1080, 0.3704 µM	0.876
HT1080, 1.111 µM	0.766
HT1080, 3.333 µM	0.715
HT1080, 10 µM	0.668
KHOS-240S, 0.00017 µM	1.04
KHOS-240S, 0.00051 µM	1.04
KHOS-240S, 0.00152 µM	1.03
KHOS-240S, 0.00457 µM	1.01
KHOS-240S, 0.01372 µM	0.996
KHOS-240S, 0.04115 µM	0.884
KHOS-240S, 0.1235 µM	0.807
KHOS-240S, 0.3704 µM	0.758
KHOS-240S, 1.111 µM	0.739
KHOS-240S, 3.333 µM	0.681
KHOS-240S, 10 µM	0.622
KHOS-NP, 0.00017 µM	1.08
KHOS-NP, 0.00051 µM	1.1
KHOS-NP, 0.00152 µM	1.09
KHOS-NP, 0.00457 µM	1.08
KHOS-NP, 0.01372 µM	1.09
KHOS-NP, 0.04115 µM	1.07
KHOS-NP, 0.1235 µM	1.06
KHOS-NP, 0.3704 µM	1.05
KHOS-NP, 1.111 µM	0.951
KHOS-NP, 3.333 µM	0.925
KHOS-NP, 10 µM	0.672
RD-ES, 0.00017 µM	0.95
RD-ES, 0.00051 µM	0.964
RD-ES, 0.00152 µM	0.952
RD-ES, 0.00457 µM	0.909
RD-ES, 0.01372 µM	0.881
RD-ES, 0.04115 µM	0.747
RD-ES, 0.1235 µM	0.428
RD-ES, 0.3704 µM	0.256
RD-ES, 1.111 µM	0.213
RD-ES, 3.333 µM	0.243
RD-ES, 10 µM	0.236
SK-ES-1, 0.00017 µM	1.01
SK-ES-1, 0.00051 µM	1.05
SK-ES-1, 0.00152 µM	1.05
SK-ES-1, 0.00457 µM	1.01
SK-ES-1, 0.01372 µM	0.965
SK-ES-1, 0.04115 µM	0.748
SK-ES-1, 0.1235 µM	0.197
SK-ES-1, 0.3704 µM	0.0886
SK-ES-1, 1.111 µM	0.0443
SK-ES-1, 3.333 µM	0.0464
SK-ES-1, 10 µM	0.0555
SW684, 0.00017 µM	1.16
SW684, 0.00051 µM	1.17
SW684, 0.00152 µM	1.18
SW684, 0.00457 µM	1.15
SW684, 0.01372 µM	1.1
SW684, 0.04115 µM	1.09
SW684, 0.1235 µM	1.01
SW684, 0.3704 µM	1.01
SW684, 1.111 µM	0.983
SW684, 3.333 µM	0.919
SW684, 10 µM	0.869
SW872, 0.00017 µM	1.02
SW872, 0.00051 µM	0.974
SW872, 0.00152 µM	0.989
SW872, 0.00457 µM	1.03
SW872, 0.01372 µM	1.01
SW872, 0.04115 µM	1.01
SW872, 0.1235 µM	0.959
SW872, 0.3704 µM	0.731
SW872, 1.111 µM	0.759
SW872, 3.333 µM	0.738
SW872, 10 µM	0.661
SW982, 0.00017 µM	1.01
SW982, 0.00051 µM	1.01
SW982, 0.00152 µM	1.03
SW982, 0.00457 µM	1.02
SW982, 0.01372 µM	1.03
SW982, 0.04115 µM	0.968
SW982, 0.1235 µM	0.583
SW982, 0.3704 µM	0.464
SW982, 1.111 µM	0.37
SW982, 3.333 µM	0.348
SW982, 10 µM	0.361
SW1353, 0.00017 µM	0.987
SW1353, 0.00051 µM	0.972
SW1353, 0.00152 µM	0.969
SW1353, 0.00457 µM	0.961
SW1353, 0.01372 µM	0.976
SW1353, 0.04115 µM	0.921
SW1353, 0.1235 µM	0.886
SW1353, 0.3704 µM	0.908
SW1353, 1.111 µM	0.85
SW1353, 3.333 µM	0.817
SW1353, 10 µM	0.685
SYO-1, 0.00017 µM	0.934
SYO-1, 0.00051 µM	0.9195
SYO-1, 0.00152 µM	0.903
SYO-1, 0.00457 µM	0.863
SYO-1, 0.01372 µM	0.826
SYO-1, 0.04115 µM	0.783
SYO-1, 0.1235 µM	0.618
SYO-1, 0.3704 µM	0.459
SYO-1, 1.111 µM	0.371
SYO-1, 3.333 µM	0.355
SYO-1, 10 µM	0.3041
